Laboratory results from patent US20260035403A1, “NUCLEOSIDE LINE-1 INHIBITORS” (TRANSPOSON THERAPEUTICS, INC., priority 2022, published 2026).

System: human LINE-1
Experiment: Human LINE-1 retrotransposition assay (HeLa cell-based dual-luciferase reporter)
Details: Homo sapiens, HeLa, 72 h, Human LINE-1 activity inhibition; HeLa cells, reporter plasmid pYX017, Firefly/Renilla, 72 h incubation
How it was run: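 HeLa cells transfected with pYX017 dual-luciferase L1 reporter and treated with serially diluted compound (0.2% DMSO final) for 72 h at 37° C. Relative L1 activity as Firefly/Renilla ratio; IC50 from four-parameter logistic fit.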

Row | IC50 [µM] | Structure (SMILES)
1 | > 50 | N#C[C@]1(CO)O[C@@H](n2cc(Cl)c(N)nc2=O)C[C@@H]1O [compound 164, (2R,3S,5R)-5-(4-amino-5-chloro-2-oxopyrimidin-1(2H)-yl)-3-hydroxy-2-(hydroxymethyl)tetrahydrofuran-2-carbonitrile]
2 | > 50 | C#C[C@]1(CO)OC(n2cc(C)c(N)nc2=O)C[C@@H]1O (stereo partly drawn) [compound 46, 4-amino-1-((4S,5R)-5-ethynyl-4-hydroxy-5-(hydroxymethyl)tetrahydrofuran-2-yl)-5-methylpyrimidin-2(1H)-one]
3 | > 50 | C#C[C@]1(CO)O[C@H](n2cc(C)c(N)nc2=O)C[C@@H]1O [compound 56, 4-amino-1-((2S,4S,5R)-5-ethynyl-4-hydroxy-5-(hydroxymethyl)tetrahydrofuran-2-yl)-5-methylpyrimidin-2(1H)-one]
4 | 0.89 | C=C[C@]1(CO)O[C@H](n2cc(C#N)c(=O)[nH]c2=O)C[C@@H]1O [compound 7, 1-((2S,4S,5R)-4-hydroxy-5-(hydroxymethyl)-5-vinyltetrahydrofuran-2-yl)-2,4-dioxo-1,2,3,4-tetrahydropyrimidine-5-carbonitrile]
5 | > 50 | C#C[C@]1(CO)O[C@@H](n2cc(C)c(=O)[nH]c2=O)C[C@H]1O [compound 29, 1-((2R,4R,5R)-5-ethynyl-4-hydroxy-5-(hydroxymethyl)tetrahydrofuran-2-yl)-5-methylpyrimidine-2,4(1H,3H)-dione]
6 | 20.9 | C#C[C@]1(CO)OC(n2cc(OC)c(=O)[nH]c2=O)C[C@@H]1O (stereo partly drawn) [compound 59, 1-((4S,5R)-5-ethynyl-4-hydroxy-5-(hydroxymethyl)tetrahydrofuran-2-yl)-5-methoxypyrimidine-2,4(1H,3H)-dione]

The next lines start with the compound.

Row | Structure (SMILES) | IC50 [µM]
7 | C#C[C@@]1(CO)C=C[C@H](n2cc(C3CC3)c(=O)[nH]c2=O)O1 [compound 27, 5-cyclopropyl-1-((2R,5R)-5-ethynyl-5-(hydroxymethyl)-2,5-dihydrofuran-2-yl)pyrimidine-2,4(1H,3H)-dione] | > 50
8 | C=C[C@]1(CO)O[C@H](n2cc(C)c(=O)[nH]c2=O)C[C@@H]1O [compound 63, 1-((2S,4S,5R)-4-hydroxy-5-(hydroxymethyl)-5-vinyltetrahydrofuran-2-yl)-5-methylpyrimidine-2,4(1H,3H)-dione] | > 12.5
9 | CC[C@]1(CO)O[C@H](n2ccc(=O)[nH]c2=O)C[C@@H]1O [Cpd. No. 20, 1-((2S,4S,5R)-5-ethyl-4-hydroxy-5-(hydroxymethyl)tetrahydrofuran-2-yl)pyrimidine-2,4(1H,3H)-dione] | 7.21
10 | C=C[C@]1(CO)O[C@@H](n2cnc3c(NC4CC4)nc(F)nc32)C[C@@H]1O [Cpd. No. 5, (2R,3S,5R)-5-(6-(cyclopropylamino)-2-fluoro-9H-purin-9-yl)-2-(hydroxymethyl)-2-vinyltetrahydrofuran-3-ol] | 0.469
11 | C=C[C@]1(CO)O[C@H](n2cc(Br)c(=O)[nH]c2=O)C[C@@H]1O [compound 65, 5-bromo-1-((2S,4S,5R)-4-hydroxy-5-(hydroxymethyl)-5-vinyltetrahydrofuran-2-yl)pyrimidine-2,4(1H,3H)-dione] | 21.9
12 | CC[C@]1(CO)O[C@H](n2cc(C)c(=O)[nH]c2=O)CC1O (stereo partly drawn) [compound 71, 1-((2S,5R)-5-ethyl-4-hydroxy-5-(hydroxymethyl)tetrahydrofuran-2-yl)-5-methylpyrimidine-2,4(1H,3H)-dione] | 1.6
13 | C#C[C@]1(CO)O[C@@H](n2cnc3c(NC4CC4)ncnc32)C[C@@H]1O [compound 86, (2R,3S,5R)-5-(6-(cyclopropylamino)-9H-purin-9-yl)-2-ethynyl-2-(hydroxymethyl)tetrahydrofuran-3-ol] | 3.4
14 | CC[C@]1(CO)O[C@@H](n2cnc3c(N)nc(Cl)nc32)[C@@H](O)[C@@H]1O [compound 193, (2R,3S,4S,5R)-5-(6-amino-2-chloro-9H-purin-9-yl)-2-ethyl-2-(hydroxymethyl)tetrahydrofuran-3,4-diol] | 2.81
